Data taken from ChEMBL document CHEMBL3580664, “Synthesis and Pharmacology of α/β(3)-Peptides Based on the Melanocortin Agonist Ac-His-dPhe-Arg-Trp-NH2 Sequence” (ACS Med Chem Lett, 2015).
Square brackets hold non-standard residues; d marks the D form. Peptide text beside a SMILES is read from it.

Legend:
[1] = molecular target: Melanocortin receptor 4 (Mus musculus, UniProt P56450); assay: Agonist activity at mouse MC4 receptor expressed in HEK-293 cells assessed as cAMP response measured after 2 hrs incubation by cAMP Alphascreen assay; type: functional, cell-based, HEK293
Chain of Melanocortin receptor 4 (P56450 whole entry): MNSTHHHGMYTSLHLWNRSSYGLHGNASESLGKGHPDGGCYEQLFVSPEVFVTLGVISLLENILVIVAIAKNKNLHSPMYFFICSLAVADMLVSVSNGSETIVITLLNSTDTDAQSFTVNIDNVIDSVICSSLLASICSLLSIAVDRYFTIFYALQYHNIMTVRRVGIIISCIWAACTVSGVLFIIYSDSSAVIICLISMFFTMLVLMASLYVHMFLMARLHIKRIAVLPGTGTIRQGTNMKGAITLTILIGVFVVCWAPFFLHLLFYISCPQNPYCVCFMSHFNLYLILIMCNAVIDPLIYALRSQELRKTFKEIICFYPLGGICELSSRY

[2] = molecular target: Melanocortin receptor 3 (Mus musculus, UniProt P33033); assay: Agonist activity at mouse MC3 receptor expressed in HEK-293 cells assessed as cAMP response measured after 2 hrs incubation by cAMP Alphascreen assay; type: functional, cell-based, HEK293
Chain of Melanocortin receptor 3 (P33033 whole entry): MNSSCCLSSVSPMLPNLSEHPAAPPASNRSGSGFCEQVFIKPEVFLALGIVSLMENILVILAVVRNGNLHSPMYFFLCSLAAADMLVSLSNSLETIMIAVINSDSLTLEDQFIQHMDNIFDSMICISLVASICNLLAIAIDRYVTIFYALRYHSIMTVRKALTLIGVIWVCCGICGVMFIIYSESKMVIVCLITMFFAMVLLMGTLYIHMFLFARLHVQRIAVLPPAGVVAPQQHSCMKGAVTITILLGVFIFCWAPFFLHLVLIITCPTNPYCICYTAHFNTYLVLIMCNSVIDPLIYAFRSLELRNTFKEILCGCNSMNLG

[3] = molecular target: Melanocortin receptor 5 (Mus musculus, UniProt P41149); assay: Agonist activity at mouse MC5 receptor expressed in HEK-293 cells assessed as cAMP response measured after 2 hrs incubation by cAMP Alphascreen assay; type: functional, cell-based, HEK293
Chain of Melanocortin receptor 5 (P41149 whole entry): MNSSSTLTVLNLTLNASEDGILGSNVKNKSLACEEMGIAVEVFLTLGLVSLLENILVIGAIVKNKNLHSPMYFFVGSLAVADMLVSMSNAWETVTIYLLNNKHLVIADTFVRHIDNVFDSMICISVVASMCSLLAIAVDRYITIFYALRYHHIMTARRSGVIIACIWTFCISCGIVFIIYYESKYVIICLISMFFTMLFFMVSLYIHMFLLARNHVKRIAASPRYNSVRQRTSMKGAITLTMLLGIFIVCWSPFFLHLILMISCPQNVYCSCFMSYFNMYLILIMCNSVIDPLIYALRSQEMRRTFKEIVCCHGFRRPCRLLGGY

[4] = molecular target: Melanocyte-stimulating hormone receptor (Mus musculus, UniProt Q01727); assay: Agonist activity at mouse MC1 receptor expressed in HEK-293 cells assessed as cAMP response measured after 2 hrs incubation by cAMP Alphascreen assay; type: functional, cell-based, HEK293
Chain of Melanocyte-stimulating hormone receptor (Q01727 whole entry): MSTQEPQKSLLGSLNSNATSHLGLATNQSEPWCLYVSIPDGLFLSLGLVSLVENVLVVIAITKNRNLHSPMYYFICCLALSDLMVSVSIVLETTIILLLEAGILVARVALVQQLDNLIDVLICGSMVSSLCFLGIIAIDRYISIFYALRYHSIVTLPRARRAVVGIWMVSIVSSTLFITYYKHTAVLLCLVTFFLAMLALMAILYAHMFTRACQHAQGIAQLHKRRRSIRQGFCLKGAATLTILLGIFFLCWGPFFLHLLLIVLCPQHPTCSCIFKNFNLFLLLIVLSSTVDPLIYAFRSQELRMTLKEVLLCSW

[5] = molecular target: Melanocortin receptor 5 (Mus musculus) (UniProt P41149); assay: Agonist activity at mouse MC5 receptor expressed in HEK-293 cells assessed as cAMP response measured at 100 uM after 2 hrs incubation by cAMP Alphascreen assay relative to control; type: functional, cell-based; settings: HEK293
Chain of Melanocortin receptor 5 (Mus musculus) (P41149 whole entry): as the sequence (P41149 whole entry) above

[6] = molecular target: Melanocortin receptor 3 (Mus musculus) (UniProt P33033); assay: Agonist activity at mouse MC3 receptor expressed in HEK-293 cells assessed as cAMP response measured at 100 uM after 2 hrs incubation by cAMP Alphascreen assay relative to control; type: functional, cell-based; settings: HEK293
Chain of Melanocortin receptor 3 (Mus musculus) (P33033 whole entry): as the sequence (P33033 whole entry) above

[7] = molecular target: Melanocortin receptor 4 (Mus musculus) (UniProt P56450); assay: Agonist activity at mouse MC4 receptor expressed in HEK-293 cells assessed as cAMP response measured at 100 uM after 2 hrs incubation by cAMP Alphascreen assay relative to control; type: functional, cell-based; settings: HEK293
Chain of Melanocortin receptor 4 (Mus musculus) (P56450 whole entry): as the sequence (P56450 whole entry) above

[8] = organism: Mus musculus; assay: Selectivity ratio for mouse MC3 receptor over mouse MC4 receptor
[9] = molecular target: Melanocyte-stimulating hormone receptor (Mus musculus) (UniProt Q01727); assay: Agonist activity at mouse MC1 receptor expressed in HEK-293 cells assessed as cAMP response measured at 100 uM after 2 hrs incubation by cAMP Alphascreen assay relative to control; type: functional, cell-based; settings: HEK293
Chain of Melanocyte-stimulating hormone receptor (Mus musculus) (Q01727 whole entry, looked up): as the sequence (Q01727 whole entry) above

Structure (SMILES)	EC50 [1] [nM]	EC50 [2] [nM]	EC50 [3] [nM]	EC50 [4] [nM]	Activity [5] [%]	Activity [6] [%]	Activity [7] [%]	Selectivity ratio [8]	Activity [9] [%]
CC(=O)N[C@@H](Cc1c[nH]cn1)C(=O)N[C@@H](Cc1ccccc1)C(=O)N[C@@H](CCCN=C(N)N)C(=O)N[C@@H](Cc1c[nH]c2ccccc12)C(N)=O	1210		70						
CC(=O)N[C@@H](Cc1cnc[nH]1)C(=O)N[C@H](Cc1ccccc1)C(=O)N[C@@H](CCCN=C(N)N)C(=O)N[C@@H](Cc1c[nH]c2ccccc12)C(N)=O	5.6								
CC(=O)N[C@@H](Cc1c[nH]cn1)C(=O)N[C@H](Cc1ccccc1)C(=O)N[C@@H](CCCNC(=N)N)C(=O)N[C@H](CC(N)=O)Cc1c[nH]c2ccccc12	12	415	5.6	33				35	
CC(=O)N[C@@H](Cc1c[nH]cn1)C(=O)N[C@@H](CC(=O)N[C@@H](CCCNC(=N)N)C(=O)N[C@@H](Cc1c[nH]c2ccccc12)C(N)=O)Cc1ccccc1				7030	60	50	60		
CC(=O)N[C@@H](Cc1c[nH]cn1)C(=O)N[C@H](Cc1ccccc1)C(=O)N[C@@H](CCCNC(=N)N)CC(=O)N[C@@H](Cc1c[nH]c2ccccc12)C(N)=O	70	854	73	37				12	

Next, values leading:

EC50 [1] [nM]	EC50 [2] [nM]	EC50 [3] [nM]	EC50 [4] [nM]	Activity [5] [%]	Activity [6] [%]	Activity [7] [%]	Selectivity ratio [8]	Activity [9] [%]	Structure (SMILES)
> 100000	> 100000	> 100000							CC(=O)N[C@@H](Cc1ccccc1)C(=O)N[C@@H](CCCNC(=N)N)C(=O)N[C@@H](Cc1c[nH]c2ccccc12)C(N)=O (Ac-Phe-Arg-Trp-NH2)
			10000	70	40	70			CC(=O)N[C@H](Cc1ccccc1)C(=O)N[C@@H](CCCN=C(N)N)C(=O)N[C@@H](Cc1c[nH]c2ccccc12)C(N)=O (Ac-[dF]-Arg-Trp-NH2)
7680		4810	6580		70				CC(=O)N[C@@H](Cc1c[nH]cn1)C(=O)N[C@H](CC(=O)N[C@@H](CCCNC(=N)N)C(=O)N[C@@H](Cc1c[nH]c2ccccc12)C(N)=O)Cc1ccccc1
								60	CC(=O)N[C@@H](Cc1ccccc1)C(=O)N[C@@H](CCCN=C(N)N)C(=O)N[C@@H](Cc1c[nH]c2ccccc12)C(N)=O (Ac-Phe-Arg-Trp-NH2)
